# According to ChEMBL document CHEMBL3414487, “Synthesis and biological activity of salinomycin conjugates with floxuridine” (Eur J Med Chem, 2015):
# Experiments:
# [1] = Antiproliferative activity against human HL60 cells assessed as growth inhibition after 72 hrs by MTT assay; assay type: functional, cell-based; settings: HL-60, 72 h
# [2] = Antiproliferative activity against human vincristine-resistant HL60/Vinc cells assessed as growth inhibition after 72 hrs by MTT assay; assay type: functional; settings: Homo sapiens, HL60/vinc, 72 h
# [3] = test system: LoVo; assay: Antiproliferative activity against human LoVo cells assessed as growth inhibition after 72 hrs by SRB method; assay type: functional, cell-based; settings: Homo sapiens, LoVo, 72 h
# [4] = Antiproliferative activity against human doxorubicin-resistant LoVo/DX cells assessed as growth inhibition after 72 hrs by SRB method; assay type: functional, cell-based
# [5] = test system: HT-29; assay: Antiproliferative activity against human HT-29 cells assessed as growth inhibition after 72 hrs by SRB method; assay type: functional, cell-based; settings: Homo sapiens, HT-29, 72 h
# [6] = Antiproliferative activity against human LS180 cells assessed as growth inhibition after 72 hrs by SRB method; assay type: functional, cell-based; settings: Homo sapiens, LS180, 72 h
# [7] = Antiproliferative activity against human SW707 cells assessed as growth inhibition after 72 hrs by SRB method; assay type: functional, cell-based; settings: Homo sapiens, SW707, 72 h
# [8] = test system: BALB/3T3; assay: Antiproliferative activity against mouse BALB/3T3 cells assessed as growth inhibition after 72 hrs by SRB method; assay type: cell-based; settings: BALB/3T3, 72 h
# [9] = test system: HL-60; assay: Selectivity index, ratio of IC50 for mouse BALB/3T3 cells to IC50 for human HL60 cells; assay type: functional
# [10] = Selectivity index, ratio of IC50 for mouse BALB/3T3 cells to IC50 for human HL60/Vinc cells; assay type: functional
# [11] = test system: LoVo; assay: Selectivity index, ratio of IC50 for mouse BALB/3T3 cells to IC50 for human LoVo cells; assay type: functional
# [12] = Selectivity index, ratio of IC50 for mouse BALB/3T3 cells to IC50 for human LoVo/DX cells; assay type: functional
# [13] = test system: HT-29; assay: Selectivity index, ratio of IC50 for mouse BALB/3T3 cells to IC50 for human HT-29 cells; assay type: functional
# [14] = Selectivity index, ratio of IC50 for mouse BALB/3T3 cells to IC50 for human LS180 cells; assay type: functional
# [15] = Selectivity index, ratio of IC50 for mouse BALB/3T3 cells to IC50 for human SW707 cells; assay type: functional
# [16] = test system: HL-60; assay: Resistance index, ratio of IC50 for human HL60/Vinc cells to IC50 for human HL60 cells
# [17] = test system: LoVo; assay: Resistance index, ratio of IC50 for human LoVo/DX cells to IC50 for human LoVo cells
# [18] = test system: Staphylococcus aureus; assay: Antimicrobial activity against Staphylococcus aureus […] 4163 after 18 hrs by two-fold serial microdilution method; assay type: functional
# [19] = test system: Staphylococcus aureus; assay: Antimicrobial activity against Staphylococcus aureus ATCC 25923 after 18 hrs by two-fold serial microdilution method; assay type: functional; settings: ATCC 25923, 18 h
# [20] = test system: Staphylococcus aureus; assay: Antimicrobial activity against Staphylococcus aureus ATCC 6538 after 18 hrs by two-fold serial microdilution method; assay type: functional; settings: ATCC 6538, 18 h
# [21] = test system: Staphylococcus aureus; assay: Antimicrobial activity against Staphylococcus aureus ATCC 29213 after 18 hrs by two-fold serial microdilution method; assay type: functional; settings: ATCC 29213, 18 h
# [22] = test system: Staphylococcus epidermidis; assay: Antimicrobial activity against Staphylococcus epidermidis ATCC 12228 after 18 hrs by two-fold serial microdilution method; assay type: functional; settings: ATCC 12228, 18 h
# [23] = test system: Staphylococcus epidermidis; assay: Antimicrobial activity against Staphylococcus epidermidis ATCC 35984 after 18 hrs by two-fold serial microdilution method; assay type: functional; settings: ATCC 35984, 18 h
# [24] = test system: Staphylococcus aureus; assay: Antimicrobial activity against methicillin-resistant Staphylococcus aureus 452/11 after 18 hrs by two-fold serial microdilution method; assay type: functional; settings: 452/11, 18 h
# [25] = test system: Staphylococcus aureus; assay: Antimicrobial activity against methicillin-resistant Staphylococcus aureus 456/11 after 18 hrs by two-fold serial microdilution method; assay type: functional; settings: 456/11, 18 h
# [26] = test system: Staphylococcus aureus; assay: Antimicrobial activity against methicillin-resistant Staphylococcus aureus 462/11 after 18 hrs by two-fold serial microdilution method; assay type: functional; settings: 462/11, 18 h
# [27] = test system: Staphylococcus aureus; assay: Antimicrobial activity against methicillin-resistant Staphylococcus aureus 514/11 after 18 hrs by two-fold serial microdilution method; assay type: functional; settings: 514/11, 18 h
# [28] = test system: Staphylococcus aureus; assay: Antimicrobial activity against methicillin-resistant Staphylococcus aureus 522/12 after 18 hrs by two-fold serial microdilution method; assay type: functional; settings: 522/12, 18 h
# [29] = test system: Staphylococcus aureus; assay: Antimicrobial activity against methicillin-resistant Staphylococcus aureus 537/12 after 18 hrs by two-fold serial microdilution method; assay type: functional; settings: 537/12, 18 h
# [30] = test system: Staphylococcus aureus; assay: Antimicrobial activity against methicillin-resistant Staphylococcus aureus 572/12 after 18 hrs by two-fold serial microdilution method; assay type: functional; settings: 572/12, 18 h
# [31] = test system: Staphylococcus aureus; assay: Antimicrobial activity against methicillin-resistant Staphylococcus aureus 573/12 after 18 hrs by two-fold serial microdilution method; assay type: functional; settings: 573/12, 18 h
# [32] = test system: Staphylococcus aureus; assay: Antimicrobial activity against methicillin-resistant Staphylococcus aureus 585/12 after 18 hrs by two-fold serial microdilution method; assay type: functional; settings: 585/12, 18 h
# [33] = test system: Staphylococcus aureus; assay: Antimicrobial activity against methicillin-resistant Staphylococcus aureus 586/12 after 18 hrs by two-fold serial microdilution method; assay type: functional; settings: 586/12, 18 h
# [34] = test system: Staphylococcus epidermidis; assay: Antimicrobial activity against methicillin-resistant Staphylococcus epidermidis 459/11 after 18 hrs by two-fold serial microdilution method; assay type: functional; settings: 459/11, 18 h
# [35] = test system: Staphylococcus epidermidis; assay: Antimicrobial activity against methicillin-resistant Staphylococcus epidermidis 460/11 after 18 hrs by two-fold serial microdilution method; assay type: functional; settings: 460/11, 18 h
# [36] = test system: Staphylococcus epidermidis; assay: Antimicrobial activity against methicillin-resistant Staphylococcus epidermidis 461/11 after 18 hrs by two-fold serial microdilution method; assay type: functional; settings: 461/11, 18 h
# [37] = test system: Staphylococcus epidermidis; assay: Antimicrobial activity against methicillin-resistant Staphylococcus epidermidis 466/11 after 18 hrs by two-fold serial microdilution method; assay type: functional; settings: 466/11, 18 h
# [38] = test system: Staphylococcus epidermidis; assay: Antimicrobial activity against methicillin-resistant Staphylococcus epidermidis 467/11 after 18 hrs by two-fold serial microdilution method; assay type: functional; settings: 467/11, 18 h
# [39] = test system: Staphylococcus epidermidis; assay: Antimicrobial activity against methicillin-resistant Staphylococcus epidermidis 468/11 after 18 hrs by two-fold serial microdilution method; assay type: functional; settings: 468/11, 18 h
# [40] = test system: Staphylococcus epidermidis; assay: Antimicrobial activity against methicillin-resistant Staphylococcus epidermidis 469/11 after 18 hrs by two-fold serial microdilution method; assay type: functional; settings: 469/11, 18 h
# [41] = test system: Staphylococcus epidermidis; assay: Antimicrobial activity against methicillin-resistant Staphylococcus epidermidis 470/11 after 18 hrs by two-fold serial microdilution method; assay type: functional; settings: 470/11, 18 h
# [42] = test system: Staphylococcus epidermidis; assay: Antimicrobial activity against methicillin-resistant Staphylococcus epidermidis 488/11 after 18 hrs by two-fold serial microdilution method; assay type: functional; settings: 488/11, 18 h
# [43] = test system: Staphylococcus epidermidis; assay: Antimicrobial activity against methicillin-resistant Staphylococcus epidermidis 489/11 after 18 hrs by two-fold serial microdilution method; assay type: functional; settings: 489/11, 18 h
structure (smiles),measurement,setting,value
O=c1[nH]c(=O)n([C@H]2C[C@H](O)[C@@H](CO)O2)cc1F [FLOXURIDINE],IC50,[1],0.24 µM
same,IC50,[2],17.4 µM
same,IC50,[3],19.1 µM
same,IC50,[4],16.7 µM
same,IC50,[5],115 µM
same,IC50,[6],140 µM
same,IC50,[7],23.9 µM
same,IC50,[8],23.9 µM
same,Selectivity Index,[9],99.58
same,Selectivity Index,[10],1.37
same,Selectivity Index,[11],1.25
same,Selectivity Index,[12],1.43
same,Selectivity Index,[13],0.21
same,Selectivity Index,[14],0.17
same,Selectivity Index,[15],1
same,Ratio IC50,[16],72.5
same,Ratio IC50,[17],0.87
same,MIC,[18],≤ 0.016 µM
same,MIC,[19],≤ 0.016 µM
same,MIC,[20],≤ 0.016 µM
same,MIC,[21],≤ 0.016 µM
same,MIC,[22],≤ 0.016 µM
same,MIC,[23],≤ 0.016 µM
same,MIC,[24],≤ 0.016 µM
same,MIC,[25],≤ 0.016 µM
same,MIC,[26],≤ 0.016 µM
same,MIC,[27],≤ 0.016 µM
same,MIC,[28],≤ 0.016 µM
same,MIC,[29],≤ 0.016 µM
same,MIC,[30],≤ 0.016 µM
same,MIC,[31],≤ 0.016 µM
same,MIC,[32],≤ 0.016 µM
same,MIC,[33],≤ 0.016 µM
same,MIC,[34],≤ 0.016 µM
same,MIC,[35],≤ 0.016 µM
same,MIC,[36],≤ 0.016 µM
same,MIC,[37],≤ 0.016 µM
same,MIC,[38],≤ 0.016 µM
same,MIC,[39],≤ 0.016 µM
same,MIC,[40],≤ 0.016 µM
same,MIC,[41],≤ 0.016 µM
same,MIC,[42],≤ 0.016 µM
same,MIC,[43],≤ 0.016 µM
O=c1[nH]cc(F)c(=O)[nH]1 [FLUOROURACIL],IC50,[1],22.5 µM
same,IC50,[2],21.2 µM
same,IC50,[3],4.69 µM
same,IC50,[4],6 µM
same,IC50,[5],25.1 µM
same,IC50,[6],38.9 µM
same,IC50,[7],20.5 µM
same,IC50,[8],3.23 µM
same,Selectivity Index,[9],0.14
same,Selectivity Index,[10],0.15
same,Selectivity Index,[11],0.69
same,Selectivity Index,[12],0.54
same,Selectivity Index,[13],0.13
same,Selectivity Index,[14],0.08
same,Selectivity Index,[15],0.16
same,Ratio IC50,[16],0.94
same,Ratio IC50,[17],1.28
same,MIC,[18],1.92 µM
same,MIC,[19],1.92 µM
same,MIC,[20],3.85 µM
same,MIC,[21],3.85 µM
same,MIC,[22],3.85 µM
same,MIC,[23],1.92 µM
same,MIC,[24],3.85 µM
same,MIC,[25],3.85 µM
same,MIC,[26],7.69 µM
same,MIC,[27],3.85 µM
same,MIC,[28],7.69 µM
same,MIC,[29],7.69 µM
same,MIC,[30],3.85 µM
same,MIC,[31],3.85 µM
same,MIC,[32],3.85 µM
same,MIC,[33],3.85 µM
same,MIC,[34],3.85 µM
same,MIC,[35],1.92 µM
same,MIC,[36],0.96 µM
same,MIC,[37],0.48 µM
same,MIC,[38],0.48 µM
same,MIC,[39],0.48 µM
same,MIC,[40],1.92 µM
same,MIC,[41],0.48 µM
same,MIC,[42],1.92 µM
same,MIC,[43],0.48 µM
CC[C@@H](C(=O)[C@@H](C)[C@@H](O)[C@H](C)[C@@H]1O[C@@H]([C@@H](CC)C(=O)O)CC[C@@H]1C)[C@H]1O[C@]2(C=C[C@@H](O)[C@]3(CC[C@@](C)([C@H]4CC[C@](O)(CC)[C@H](C)O4)O3)O2)[C@H](C)C[C@@H]1C [SALINOMYCIN],IC50,[1],0.29 µM
same,IC50,[2],2.09 µM
same,IC50,[3],0.36 µM
same,IC50,[4],0.76 µM
same,IC50,[5],1.03 µM
same,IC50,[6],0.61 µM
same,IC50,[7],1.73 µM
same,IC50,[8],9.33 µM
same,Selectivity Index,[9],32.17
same,Selectivity Index,[10],4.46
same,Selectivity Index,[11],25.92
same,Selectivity Index,[12],12.28
same,Selectivity Index,[13],9.06
same,Selectivity Index,[14],15.3
same,Selectivity Index,[15],5.39
same,Ratio IC50,[16],7.21
same,Ratio IC50,[17],2.11
same,MIC,[18],2.66 µM
same,MIC,[19],2.66 µM
same,MIC,[20],2.66 µM
same,MIC,[21],2.66 µM
same,MIC,[22],2.66 µM
same,MIC,[23],2.66 µM
same,MIC,[24],1.33 µM
same,MIC,[25],1.33 µM
same,MIC,[26],2.66 µM
same,MIC,[27],2.66 µM
same,MIC,[28],2.66 µM
same,MIC,[29],2.66 µM
same,MIC,[30],1.33 µM
same,MIC,[31],1.33 µM
same,MIC,[32],2.66 µM
same,MIC,[33],2.66 µM
same,MIC,[34],2.66 µM
same,MIC,[35],2.66 µM
same,MIC,[36],2.66 µM
same,MIC,[37],2.66 µM
same,MIC,[38],2.66 µM
same,MIC,[39],2.66 µM
same,MIC,[40],2.66 µM
same,MIC,[41],2.66 µM
same,MIC,[42],2.66 µM
same,MIC,[43],2.66 µM
